Molecular target: Aβ42 (Homo sapiens, UniProt P05067)
Experiment: Th-T (thioflavin-T) assay of Aβ42 aggregation
Assay type: biochemical
Settings: for Th-T assay plate reading, mean of three wells (Supplementary Fig. 47): source data, Ab alone and No Ab as controls

Sequence of Aβ42 (P05067 672-713): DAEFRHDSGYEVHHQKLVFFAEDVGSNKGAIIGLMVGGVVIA

Structure (SMILES): C=C1CC[C@H]2[C@]3(C)C[C@@H](C=C(C)C)O[C@H]3CC[C@]2(C)[C@@H]1Cc1c(OC)oc(CO)c(C)c1=O [Compound 17]
- Th-T fluorescence, mean of three wells (Aβ42 aggregation time course, reading M117): 3.6742
- Th-T fluorescence, mean of three wells (Aβ42 aggregation time course, reading M118): 3.663
- Th-T fluorescence, mean of three wells (Aβ42 aggregation time course, reading M119): 3.652
- Th-T fluorescence, mean of three wells (Aβ42 aggregation time course, reading M120): 3.6432
- Th-T fluorescence, mean of three wells (Aβ42 aggregation time course, reading M121): 3.639
- Th-T fluorescence, mean of three wells (Aβ42 aggregation time course, reading M122): 3.631
- Th-T fluorescence, mean of three wells (Aβ42 aggregation time course, reading M123): 3.625
- Th-T fluorescence, mean of three wells (Aβ42 aggregation time course, reading M124): 3.645
- Th-T fluorescence, mean of three wells (Aβ42 aggregation time course, reading M125): 3.636
- Th-T fluorescence, mean of three wells (Aβ42 aggregation time course, reading M126): 3.626
- Th-T fluorescence, mean of three wells (Aβ42 aggregation time course, reading M127): 3.63
- Th-T fluorescence, mean of three wells (Aβ42 aggregation time course, reading M128): 3.617
- Th-T fluorescence, mean of three wells (Aβ42 aggregation time course, reading M129): 3.6361
- Th-T fluorescence, mean of three wells (Aβ42 aggregation time course, reading M130): 3.633
- Th-T fluorescence, mean of three wells (Aβ42 aggregation time course, reading M131): 3.621
- Th-T fluorescence, mean of three wells (Aβ42 aggregation time course, reading M132): 3.621
- Th-T fluorescence, mean of three wells (Aβ42 aggregation time course, reading M133): 3.612
- Th-T fluorescence, mean of three wells (Aβ42 aggregation time course, reading M134): 3.622
- Th-T fluorescence, mean of three wells (Aβ42 aggregation time course, reading M135): 3.594
- Th-T fluorescence, mean of three wells (Aβ42 aggregation time course, reading M136): 3.604
- Th-T fluorescence, mean of three wells (Supplementary Fig. 47, reading M137): 3.585
- Th-T fluorescence, mean of three wells (Supplementary Fig. 47, reading M138): 3.583
- Th-T fluorescence, mean of three wells (Supplementary Fig. 47, reading M139): 3.585
- Th-T fluorescence, mean of three wells (Supplementary Fig. 47, reading M140): 3.575
- Th-T fluorescence, mean of three wells (Supplementary Fig. 47, reading M141): 3.571
- Th-T fluorescence, mean of three wells (Supplementary Fig. 47, reading M142): 3.57
- Th-T fluorescence, mean of three wells (Supplementary Fig. 47, reading M143): 3.569
- Th-T fluorescence, mean of three wells (Supplementary Fig. 47, reading M144): 3.562
- Th-T fluorescence, mean of three wells (Supplementary Fig. 47, reading M145): 3.551
- Th-T fluorescence, mean of three wells (Supplementary Fig. 47 source data, measurement M37 of time course): 3.249
- Th-T fluorescence, mean of three wells (Supplementary Fig. 47 source data, measurement M38 of time course): 3.349
- Th-T fluorescence, mean of three wells (Supplementary Fig. 47 source data, measurement M39 of time course): 3.376
- Th-T fluorescence, mean of three wells (Supplementary Fig. 47 source data, measurement M40 of time course): 3.376
- Th-T fluorescence, mean of three wells (Supplementary Fig. 47 source data, measurement M41 of time course): 3.367
- Th-T fluorescence, mean of three wells (Supplementary Fig. 47 source data, measurement M42 of time course): 3.371
- Th-T fluorescence, mean of three wells (Supplementary Fig. 47 source data, measurement M43 of time course): 3.406
- Th-T fluorescence, mean of three wells (Supplementary Fig. 47 source data, measurement M44 of time course): 3.418
- Th-T fluorescence, mean of three wells (Supplementary Fig. 47 source data, measurement M45 of time course): 3.459
- Th-T fluorescence, mean of three wells (Supplementary Fig. 47 source data, measurement M46 of time course): 3.456
- Th-T fluorescence, mean of three wells (Supplementary Fig. 47 source data, measurement M47 of time course): 3.465
- Th-T fluorescence, mean of three wells (Supplementary Fig. 47 source data, measurement M48 of time course): 3.489
- Th-T fluorescence, mean of three wells (Supplementary Fig. 47 source data, measurement M49 of time course): 3.497
- Th-T fluorescence, mean of three wells (Supplementary Fig. 47 source data, measurement M50 of time course): 3.516
- Th-T fluorescence, mean of three wells (Supplementary Fig. 47 source data, measurement M51 of time course): 3.557
- Th-T fluorescence, mean of three wells (Supplementary Fig. 47 source data, measurement M52 of time course): 3.55
- Th-T fluorescence, mean of three wells (Supplementary Fig. 47 source data, measurement M53 of time course): 3.554
- Th-T fluorescence, mean of three wells (Supplementary Fig. 47 source data, measurement M54 of time course): 3.5687
- Th-T fluorescence, mean of three wells (Supplementary Fig. 47 source data, measurement M55 of time course): 3.6
- Th-T fluorescence, mean of three wells (Supplementary Fig. 47 source data, measurement M56 of time course): 3.63
- Th-T assay plate reading, mean of three wells (Supplementary Fig. 47) (measurement M1): 0.2517
- Th-T assay plate reading, mean of three wells (Supplementary Fig. 47) (measurement M2): 0.2528
- Th-T assay plate reading, mean of three wells (Supplementary Fig. 47) (measurement M3): 0.2961
- Th-T assay plate reading, mean of three wells (Supplementary Fig. 47) (measurement M4): 0.352
- Th-T assay plate reading, mean of three wells (Supplementary Fig. 47) (measurement M5): 0.4245
- Th-T assay plate reading, mean of three wells (Supplementary Fig. 47) (measurement M6): 0.4941
- Th-T assay plate reading, mean of three wells (Supplementary Fig. 47) (measurement M7): 0.5517
- Th-T assay plate reading, mean of three wells (Supplementary Fig. 47) (measurement M8): 0.6173
- Th-T assay plate reading, mean of three wells (Supplementary Fig. 47) (measurement M9): 0.6978
- Th-T assay plate reading, mean of three wells (Supplementary Fig. 47) (measurement M10): 0.9149
- Th-T assay plate reading, mean of three wells (Supplementary Fig. 47) (measurement M11): 1.381
- Th-T assay plate reading, mean of three wells (Supplementary Fig. 47) (measurement M12): 1.864
- Th-T assay plate reading, mean of three wells (Supplementary Fig. 47) (measurement M13): 2.227
- Th-T assay plate reading, mean of three wells (Supplementary Fig. 47) (measurement M14): 2.461
- Th-T assay plate reading, mean of three wells (Supplementary Fig. 47) (measurement M15): 2.575
- Th-T assay plate reading, mean of three wells (Supplementary Fig. 47) (measurement M16): 2.619
- Th-T fluorescence, mean of three wells (reading M17, Supplementary Fig. 47 source data): 2.658
- Th-T fluorescence, mean of three wells (reading M18, Supplementary Fig. 47 source data): 2.682
- Th-T fluorescence, mean of three wells (reading M19, Supplementary Fig. 47 source data): 2.683
- Th-T fluorescence, mean of three wells (reading M20, Supplementary Fig. 47 source data): 2.726
- Th-T fluorescence, mean of three wells (reading M21, Supplementary Fig. 47 source data): 2.74
- Th-T fluorescence, mean of three wells (reading M22, Supplementary Fig. 47 source data): 2.776
- Th-T fluorescence, mean of three wells (reading M23, Supplementary Fig. 47 source data): 2.7833
- Th-T fluorescence, mean of three wells (reading M24, Supplementary Fig. 47 source data): 2.808
- Th-T fluorescence, mean of three wells (reading M25, Supplementary Fig. 47 source data): 2.851
- Th-T fluorescence, mean of three wells (reading M26, Supplementary Fig. 47 source data): 2.893
- Th-T fluorescence, mean of three wells (reading M27, Supplementary Fig. 47 source data): 2.879
- Th-T fluorescence, mean of three wells (reading M28, Supplementary Fig. 47 source data): 2.908
- Th-T fluorescence, mean of three wells (reading M29, Supplementary Fig. 47 source data): 2.914
- Th-T fluorescence, mean of three wells (reading M30, Supplementary Fig. 47 source data): 2.944
- Th-T fluorescence, mean of three wells (reading M31, Supplementary Fig. 47 source data): 2.96
- Th-T fluorescence, mean of three wells (reading M32, Supplementary Fig. 47 source data): 3.025
- Th-T fluorescence, mean of three wells (reading M33, Supplementary Fig. 47 source data): 3.031
- Th-T fluorescence, mean of three wells (reading M34, Supplementary Fig. 47 source data): 3.078
- Th-T fluorescence, mean of three wells (reading M35, Supplementary Fig. 47 source data): 3.103
- Th-T fluorescence, mean of three wells (reading M36, Supplementary Fig. 47 source data): 3.12
- Th-T fluorescence, mean of three wells (time course, reading M57): 3.617
- Th-T fluorescence, mean of three wells (time course, reading M58): 3.628
- Th-T fluorescence, mean of three wells (time course, reading M59): 3.637
- Th-T fluorescence, mean of three wells (time course, reading M60): 3.637
- Th-T fluorescence, mean of three wells (time course, reading M61): 3.653
- Th-T fluorescence, mean of three wells (time course, reading M62): 3.653
- Th-T fluorescence, mean of three wells (time course, reading M63): 3.655
- Th-T fluorescence, mean of three wells (time course, reading M64): 3.667
- Th-T fluorescence, mean of three wells (time course, reading M65): 3.662
- Th-T fluorescence, mean of three wells (time course, reading M66): 3.684
- Th-T fluorescence, mean of three wells (time course, reading M67): 3.7096
- Th-T fluorescence, mean of three wells (time-course reading M97, Supplementary Fig. 47 source data): 3.715
- Th-T fluorescence, mean of three wells (time-course reading M98, Supplementary Fig. 47 source data): 3.727
- Th-T fluorescence, mean of three wells (time-course reading M99, Supplementary Fig. 47 source data): 3.7169
- Th-T fluorescence, mean of three wells (time-course reading M100, Supplementary Fig. 47 source data): 3.715
- Th-T fluorescence, mean of three wells (time-course reading M101, Supplementary Fig. 47 source data): 3.715
- Th-T fluorescence, mean of three wells (time-course reading M102, Supplementary Fig. 47 source data): 3.7
- Th-T fluorescence, mean of three wells (time-course reading M103, Supplementary Fig. 47 source data): 3.686
- Th-T fluorescence, mean of three wells (time-course reading M104, Supplementary Fig. 47 source data): 3.695
- Th-T fluorescence, mean of three wells (time-course reading M105, Supplementary Fig. 47 source data): 3.722
- Th-T fluorescence, mean of three wells (time-course reading M106, Supplementary Fig. 47 source data): 3.704
- Th-T fluorescence, mean of three wells (time-course reading M107, Supplementary Fig. 47 source data): 3.71
- Th-T fluorescence, mean of three wells (time-course reading M108, Supplementary Fig. 47 source data): 3.718
- Th-T fluorescence, mean of three wells (time-course reading M109, Supplementary Fig. 47 source data): 3.713
- Th-T fluorescence, mean of three wells (time-course reading M110, Supplementary Fig. 47 source data): 3.7
- Th-T fluorescence, mean of three wells (time-course reading M111, Supplementary Fig. 47 source data): 3.699
- Th-T fluorescence, mean of three wells (time-course reading M112, Supplementary Fig. 47 source data): 3.698
- Th-T fluorescence, mean of three wells (time-course reading M113, Supplementary Fig. 47 source data): 3.697
- Th-T fluorescence, mean of three wells (time-course reading M114, Supplementary Fig. 47 source data): 3.674
- Th-T fluorescence, mean of three wells (time-course reading M115, Supplementary Fig. 47 source data): 3.682
- Th-T fluorescence, mean of three wells (time-course reading M116, Supplementary Fig. 47 source data): 3.669

From publication PMC7156458, “Synthetic biology based construction of biological activity-related library of fungal decalin-containing diterpenoid pyrones” (Nature Communications, 2020)
